Experimental data reported in publication PMC11530130, “Peripherally restricted PICK1 inhibitor mPD5 ameliorates pain behaviors in murine inflammatory and neuropathic pain models” (JCI Insight, 2024).
Where “and” joins values, the source holds several entries; their conditions need not be identical. Equal entries are not always repeated.

Test system: mice, CIBP model (NCTC 2472 cell inoculation)
Experiment: CIBP model, static weight bearing
Format: in vivo, mouse
Conditions: for static weight bearing (Fig S7C): CIBP mice, individual animals; for effect on weight-bearing ratio: CIBP, female mice
Experimental: solution (0.05 mg/kg) injected s.c. 30 min before surgery (10 μL/g). For surgery, mice were anaesthetised with ketamine (100 mg/kg, i.p.) and xylazine (10 mg/kg, i.p.) (volume 10 µL/g) with 100 μL of 1% xylocaine solution infiltrated at the site of the incision. The distal trifurcation of the sciatic nerve was identified, and the tibial and common peroneal branches were ligated with polypropylene nonabsorbable 6-0 sutures (Ethicon) and 1 mm was cut out, leaving the sural branch intact. The wound was closed with sutures, and the animals were allowed to recover and returned to their cages. Two subcutaneous injections of buprenorphine (0.05 mg/kg) were performed with an 8 to 12 hours delay decreasing pain due to the surgery […]
The remaining SNI pain experiments were performed in-house using the following procedure.
SNI surgery was performed on the left hindleg of C57BL/6J male and female mice (Janvier, France) under 2% isoflurane anaesthesia. Skin on the lateral surface was incised between hip and knee followed by lengthwise division of the biceps femoris muscle leading to exposure of the three branches of the sciatic nerve. Sural branch was left intact, while the peroneal and tibial branches were ligated with a single surgical knot and axotomized distally of the ligation.
Wounds were closed with surgical glue or medical clips and animals were monitored daily for signs of stress or discomfort, but in all cases recovered uneventfully.
Induction of Diabetic neuropathy (STZ model).
Diabetes was induced by a single i.p. injection of […] streptozocin (STZ) solution (100 μL/10 g, Sigma-Aldrich S0130, batch #WXBB7152V) in male seven-week-old C57BL/6J (Charles River) mice. Glycemia was tested before, and seven days after injection. All injected mice had blood glucose concentration >350 mg/dL from day seven and were used for analgesic testing of the compounds from day 14. One mouse had to be euthanized at seven days post injection. This experiment was performed by Phenotype Expertise, Marseilles, France - Pain and CNS behaviour CRO under supervision of Stéphane Gaillard, PhD (CEO).
Induction of cancer induced bone pain (CIBP model).
Osteosarcoma cell line NCTC 2472 (American Type Culture Collection, CCL-11TM) was cultured for two weeks prior to surgery in NCTC-135 medium (Sigma-Aldrich, Denmark) supplemented with sodium hydrogen carbonate and 10% equine serum (Sigma-Aldrich, Denmark). On the day of surgery, cells were washed with PBS and incubated with 3 mL trypsin-EDTA for five min followed by centrifugation (2800 rpm, 3 min). Supernatant was removed, and cell pellet resuspended in PBS to obtain a cell density of 10^7 cells/mL.
Two separate cohorts of female C3H/HeNHsd mice (Envigo, Netherlands) of 7-8 weeks, were anaesthetized with 6.25 mg/kg xylazine (Rompun vet, 20 mg/mL, Bayer, KVP Pharma + Veterinär Produkte GmbH, Germany, Batch: KV02BHF) and 43.75 mg/kg ketamine (Ketaminol vet, 100 mg/mL, MSD Animal Health, AN Boxmeer, The Netherlands, Batch:
A140A01) and received 1.0-1.2% isoflurane (1000 mg/g isoflurane, Attane vet, ScanVet, Piramal Critical Care Ltd., UK, Batch: G123J18B) during surgery. The mouse was placed on a 37 °C heating pad. Both hind legs were shaved, and a small horizontal incision was made under the knee followed by a vertical incision of approximately 0.5 cm until the patellar tendon was exposed. The patellar tendon was moved to the lateral side exposing the distal epiphysis of the femur. A hole was made in the middle of the distal epiphysis by gently pushing a 30 G needle (0.3x12 mm, 30 Gx1/2”, Luer-Lock, CHIRANA T. Injecta, CH30012) through the bone while rotating. The position of the needle was confirmed by X-ray imaging (IVIS Lumina XR Apparatus, Caliper Life Sciences, Belgium). Following resuspension, 10 μL, corresponding to […]
[…] NCTC 2472 cells or PBS (sham mice), was injected in the bone marrow cavity with an insulin syringe (1 mL Luer, BD PlastipakTM, 303172) attached to a 30 G needle and left in the […]
femur for one min. […]

For `CN1CC[C@]23c4c5ccc(O)c4O[C@H]2[C@@H](O)C=C[C@H]3[C@H]1C5` [morphine], the “static weight bearing (Fig S7C)” value (BL1) was 50.01 and 50.76 and 43.99 and 53.97 and 55.19 and 55.68 and 51.81 and 54.18 and 46.08 and 56.67, the “static weight bearing (Fig S7C)” value (BL2) was 47.61 and 46.15 and 51.95 and 48.94 and 50.73 and 54.51 and 47.91 and 45.61 and 50.32 and 52.04 and the “static weight bearing (Fig S7C)” value (Post (after treatment)) was 30.29 and 34.04 and 29.99 and 42.43 and 37.09 and 45.12 and 35.66 and 34.06 and 42.67 and 36.03. For the same compound, the “static weight bearing (Fig S7C)” value (Pre (before treatment)) was 24.27 and 31.25 and 36.25 and 30.33 and 34.01 and 33.28 and 32.53 and 29.97 and 30.04 and 32.35 and the “effect on weight-bearing ratio” value (s.c. 5 mg/kg) was “partial but significant increase”.
With `CCCCCCCCCCCCCC(=O)N(CCOCCOCCC(=O)N[C@@H](Cc1c[nH]cn1)C(=O)N[C@@H](Cc1c[nH]c2ccccc12)C(=O)N[C@@H](CC(C)C)C(=O)N[C@@H](CCCCN)C(=O)N[C@H](C(=O)O)C(C)C)CCOCCOCCC(=O)N[C@@H](Cc1c[nH]cn1)C(=O)N[C@@H](Cc1c[nH]c2ccccc12)C(=O)N[C@@H](CC(C)C)C(=O)N[C@@H](CCCCN)C(=O)N[C@H](C(=O)O)C(C)C` [mPD5, myristoyl-NPEG4-(HWLKV)2] the “effect on weight-bearing ratio” value (s.c. 10 μmol/kg) was “no effect”.
